Patent US20250332152A1, “INHALED THERAPY FOR CARDIAC ARRHYTHMIA” (InCarda Therapeutics, Inc., priority 2021, published 2025)

Assays:
[1] = Flecainide peak plasma concentration (Cmax) versus BMI classification in atrial fibrillation patients; format: in vivo, human; conditions: atrial fibrillation patients (n=81); 120 mg flecainide acetate via oral inhalation; both conversion and no conversion cohorts
Description: Logistic regression was performed to identify predictors of cardioversion success at 90 minutes post-dose, and potential interactions were examined by linear regression.
FIG. 6 is a chart depicting median Cmax versus BMI classification (normal (BMI<25), overweight (BMI≥25 and <30), obese/severe obese (BMI≥30)) in atrial fibrillation patients (n=81) administered 120 mg flecainide acetate via oral inhalation.

[2] = tested on: recent-onset symptomatic AF; assay: Clinical study: cardioversion of recent-onset atrial fibrillation to sinus rhythm with orally inhaled flecainide; format: in vivo, human; conditions: 120 mg flecainide acetate (eTLD) by oral inhalation; for conversion rate (AF to sinus rhythm): cardioversion success at 90 minutes post-dose
Description: A flecainide acetate oral inhalation solution for acute cardioversion of recent-onset symptomatic AF was administered to 80 patients to determine if height, weight, and body mass index (BMI) are predictors of successful cardioversion of AF to sinus rhythm (SR) with the inhalation solution.
The flecainide formulation used in this study is described in TABLE 1.
In this study, for inhalation delivery of flecainide, an estimated total lung dose (eTLD) of 120 mg were calculated to account for losses of flecainide in the inhalation device and losses of flecainide in subjects' mouth and throat. An 120 mg eTLD was thereby used to denote the dose that actually reached the lungs of the subjects. By design, in all nebulizers there can be a residual volume or mass of drug solution that stays in the nebulizer, and there can also be a percentage of the aerosol caught by subject's throat and mouth. For instance, in this study, it was estimated that 30% of the aerosol was lost in subject's throat and mouth. Therefore the eTLD would be: eTLD=(100-30) %*amount of aerosolized drug that left nebulizer=70%*(amount of drug placed in nebulizer−amount of drug staying in nebulizer).
The AeroEclipse®II BAN inhaler was used for nebulization and inhalation of the exemplary flecainide formulations. It is available as an approved device in several countries across the world including European countries, USA, and Canada. The inhaler is a hand-held, breath actuated, jet nebulizer which operates through a source of compressed air available as medical air in the hospital ER. The AeroEclipse®BAN delivers a high respirable dose and an optimal particle size to reach the deeper lung regions to enable faster drug absorption. Flecainide acetate inhalation solution was transferred from the vial into the reservoir of the AeroEclipse®II BAN at a volume corresponding to the required dose to the lung. To administer an estimated total lung dose of […] flecainide acetate, the nebulizer was filled with 4.2 mL of Formulation A described in TABLE 1. The total volume filled in each dosing cup was based on the assumption of a 70% (v/v) lung deposition, a 12.5% (v/v) loss due to fugitive aerosol based on in-vitro experiments, and device retention of approximately 1.5 mL of the solution.
Participants in the study were administered the study medications according to the following guidelines: • Subject self-administers inhalation using the AeroEclipse® II BAN • Subject is seated upright in a comfortable chair or adjustable bed with table that has adjustable height in front (e.g. overbed table on casters) where the subject can rest his/her arms (e.g. overbed table on casters) from approximately 30 minutes prior to the start of inhalation up to at least 15 minutes after the last inhalation is completed. […]

[3] = Solubility of flecainide acetate in water solution; format: physicochemical

In the case of O=C(NCC1CCCCN1)c1cc(OCC(F)(F)F)ccc1OCC(F)(F)F (stereo not drawn) [flecainide acetate], the “median flecainide peak plasma concentration (Cmax) versus BMI category” value [1] is reported as “positive correlation”, the “conversion rate (AF to sinus rhythm)” value ([2]; obese patients (BMI≥30 and <35 kg/m^2)) is reported as 43% and the “conversion rate (AF to sinus rhythm)” value ([2]; overweight patients (BMI≥25 and <30 kg/m^2)) is reported as 47%. The “conversion rate (AF to sinus rhythm)” value ([2]; patients with normal BMI (<25 kg/m^2)) was 53%, the “AF successfully converted to sinus rhythm” value ([2]; severely obese patients, 90 minutes post-dose) was “none” and the solubility [3] was ~60 mg/mL.
